In patent US11498899B2, “Nitrone herbicides” (FMC Corporation, priority 2016, dated 2022):

Experiments:
[1] = test system: barnyardgrass (Echinochloa crus-galli); experiment: Test A preemergence, visual injury rating 0-100 (0 no effect, 100 complete control); assay type: in vivo
[2] = test system: foxtail, giant (giant foxtail, Setaria faberii); experiment: Test A preemergence, visual injury rating 0-100; assay type: in vivo
kochia (Kochia scoparia) [3] = experiment: Test A preemergence, visual injury rating 0-100; assay type: in vivo
[4] = test system: pigweed (Amaranthus retroflexus); experiment: Test A preemergence, visual injury rating 0-100; assay type: in vivo
[5] = test system: ragweed (common ragweed, Ambrosia elatior); experiment: Test A preemergence, visual injury rating 0-100; assay type: in vivo
[6] = test system: ryegrass, Italian (Italian ryegrass, Lolium multiflorum); experiment: Test A preemergence, visual injury rating 0-100; assay type: in vivo
[7] = test system: barnyardgrass (Echinochloa crus-galli); experiment: Test A postemergence, visual injury rating 0-100; assay type: in vivo; conditions: 0 to 100 scale
[8] = test system: blackgrass (Alopecurus myosuroides); experiment: Test A postemergence, visual injury rating 0-100; assay type: in vivo; conditions: 0 to 100 scale
corn (Zea mays) = experiment: Test A postemergence, visual injury rating 0-100; assay type: in vivo; conditions: 0 to 100 scale
[9] = test system: foxtail, giant (giant foxtail, Setaria faberii); experiment: Test A postemergence, visual injury rating 0-100; assay type: in vivo; conditions: 0 to 100 scale
[10] = test system: galium (catchweed bedstraw, Galium aparine); experiment: Test A postemergence, visual injury rating 0-100; assay type: in vivo; conditions: 0 to 100 scale
kochia (Kochia scoparia) [11] = experiment: Test A postemergence, visual injury rating 0-100; assay type: in vivo; conditions: 0 to 100 scale
[12] = test system: pigweed (Amaranthus retroflexus); experiment: Test A postemergence, visual injury rating 0-100; assay type: in vivo; conditions: 0 to 100 scale
[13] = test system: ragweed (common ragweed, Ambrosia elatior); experiment: Test A postemergence, visual injury rating 0-100; assay type: in vivo; conditions: 0 to 100 scale
[14] = test system: ryegrass, Italian (Italian ryegrass, Lolium multiflorum); experiment: Test A postemergence, visual injury rating 0-100; assay type: in vivo; conditions: 0 to 100 scale
[15] = test system: wheat (Triticum aestivum); experiment: Test A postemergence, visual injury rating 0-100; assay type: in vivo; conditions: 0 to 100 scale
[16] = test system: ducksalad (Heteranthera limosa); experiment: Test B flooded paddy test, visual rating 0-100; conditions: Flood, 250 g ai/ha, applied to paddy water, rated after 13 to 15 days
[17] = test system: barnyardgrass (Echinochloa crus-galli); experiment: Test B flooded paddy test, visual rating 0-100; conditions: Flood, 250 g ai/ha, applied to paddy water, rated after 13 to 15 days
rice (Oryza sativa) = experiment: Test B flooded paddy test, visual rating 0-100 (0 no effect, 100 complete control); conditions: Flood, 250 g ai/ha, applied to paddy water, rated after 13 to 15 days

CC1=[N+]([O-])C(C(=O)Nc2cccc(F)c2F)C(c2ccc(C(F)(F)F)nc2)C1 (racemic) [Compound 60]
Barnyardgrass plant response rating (0 to 100 scale) ([1]; 125 g ai/ha): 90
Barnyardgrass plant response rating (0 to 100 scale) ([1]; 500 g ai/ha): 100
Foxtail, Giant plant response rating (0 to 100 scale) ([2]; 125 g ai/ha): 90
Foxtail, Giant plant response rating (0 to 100 scale) ([2]; 500 g ai/ha): 100
Kochia plant response rating (0 to 100 scale) (kochia (Kochia scoparia) [3]; 125 g ai/ha): 10
Kochia plant response rating (0 to 100 scale) (kochia (Kochia scoparia) [3]; 500 g ai/ha): 80
Pigweed plant response rating (0 to 100 scale) ([4]; 125 g ai/ha): 50
Pigweed plant response rating (0 to 100 scale) ([4]; 500 g ai/ha): 80
Ragweed plant response rating (0 to 100 scale) ([5]; 125 g ai/ha): 0
Ragweed plant response rating (0 to 100 scale) ([5]; 500 g ai/ha): 90
Ryegrass, Italian plant response rating (0 to 100 scale) ([6]; 125 g ai/ha): 10
Ryegrass, Italian plant response rating (0 to 100 scale) ([6]; 500 g ai/ha): 70
Barnyardgrass plant response rating ([7]; 125 g ai/ha): 40
Barnyardgrass plant response rating ([7]; 500 g ai/ha): 90
Blackgrass plant response rating ([8]; 125 g ai/ha): 10
Blackgrass plant response rating ([8]; 500 g ai/ha): 70
Corn plant response rating (corn (Zea mays); 125 g ai/ha): 20
Corn plant response rating (corn (Zea mays); 500 g ai/ha): 60
Foxtail, Giant plant response rating ([9]; 125 g ai/ha): 70
Foxtail, Giant plant response rating ([9]; 500 g ai/ha): 90
Galium plant response rating ([10]; 125 g ai/ha): 20
Galium plant response rating ([10]; 500 g ai/ha): 60
Kochia plant response rating (kochia (Kochia scoparia) [11]; 125 g ai/ha): 0
Kochia plant response rating (kochia (Kochia scoparia) [11]; 500 g ai/ha): 10
Pigweed plant response rating ([12]; 125 g ai/ha): 0
Pigweed plant response rating ([12]; 500 g ai/ha): 10
Ragweed plant response rating ([13]; 125 g ai/ha): 0
Ragweed plant response rating ([13]; 500 g ai/ha): 40
Ryegrass, Italian plant response rating ([14]; 125 g ai/ha): 0
Ryegrass, Italian plant response rating ([14]; 500 g ai/ha): 40
Wheat plant response rating ([15]; 125 g ai/ha): 20
Wheat plant response rating ([15]; 500 g ai/ha): 70
Ducksalad plant response rating (0 to 100 scale) [16]: 0
Barnyardgrass plant response rating (0 to 100 scale) [17]: 40
Rice plant response rating (0 to 100 scale) (rice (Oryza sativa)): 0

CC1=[N+]([O-])C(C(=O)Nc2cccc(F)c2F)C(c2ccc(C)c(C(F)(F)F)c2)C1 (racemic) [Compound 62]
Barnyardgrass plant response rating (0 to 100 scale) ([1]; 125 g ai/ha): 90
Barnyardgrass plant response rating (0 to 100 scale) ([1]; 500 g ai/ha): 90
Foxtail, Giant plant response rating (0 to 100 scale) ([2]; 125 g ai/ha): 90
Foxtail, Giant plant response rating (0 to 100 scale) ([2]; 500 g ai/ha): 90
Kochia plant response rating (0 to 100 scale) (kochia (Kochia scoparia) [3]; 125 g ai/ha): 0
Kochia plant response rating (0 to 100 scale) (kochia (Kochia scoparia) [3]; 500 g ai/ha): 60
Pigweed plant response rating (0 to 100 scale) ([4]; 125 g ai/ha): 10
Pigweed plant response rating (0 to 100 scale) ([4]; 500 g ai/ha): 70
Ragweed plant response rating (0 to 100 scale) ([5]; 125 g ai/ha): 0
Ragweed plant response rating (0 to 100 scale) ([5]; 500 g ai/ha): 60
Ryegrass, Italian plant response rating (0 to 100 scale) ([6]; 125 g ai/ha): 90
Ryegrass, Italian plant response rating (0 to 100 scale) ([6]; 500 g ai/ha): 90
Barnyardgrass plant response rating ([7]; 125 g ai/ha): 70
Barnyardgrass plant response rating ([7]; 500 g ai/ha): 80
Blackgrass plant response rating ([8]; 125 g ai/ha): 40
Blackgrass plant response rating ([8]; 500 g ai/ha): 70
Corn plant response rating (corn (Zea mays); 125 g ai/ha): 60
Corn plant response rating (corn (Zea mays); 500 g ai/ha): 80
Foxtail, Giant plant response rating ([9]; 125 g ai/ha): 50
Foxtail, Giant plant response rating ([9]; 500 g ai/ha): 80
Galium plant response rating ([10]; 125 g ai/ha): 40
Galium plant response rating ([10]; 500 g ai/ha): 50
Kochia plant response rating (kochia (Kochia scoparia) [11]; 125 g ai/ha): 0
Kochia plant response rating (kochia (Kochia scoparia) [11]; 500 g ai/ha): 20
Pigweed plant response rating ([12]; 125 g ai/ha): 0
Pigweed plant response rating ([12]; 500 g ai/ha): 10
Ragweed plant response rating ([13]; 125 g ai/ha): 0
Ragweed plant response rating ([13]; 500 g ai/ha): 50
Ryegrass, Italian plant response rating ([14]; 125 g ai/ha): 70
Ryegrass, Italian plant response rating ([14]; 500 g ai/ha): 80
Wheat plant response rating ([15]; 125 g ai/ha): 40
Wheat plant response rating ([15]; 500 g ai/ha): 50
Ducksalad plant response rating (0 to 100 scale) [16]: 0
Barnyardgrass plant response rating (0 to 100 scale) [17]: 55
Rice plant response rating (0 to 100 scale) (rice (Oryza sativa)): 0

CC1=[N+]([O-])C(C(=O)Nc2cccc(F)c2F)C(c2ccc(F)c(Cl)c2)C1 (racemic) [Compound 63]
Barnyardgrass plant response rating (0 to 100 scale) ([1]; 125 g ai/ha): 80
Barnyardgrass plant response rating (0 to 100 scale) ([1]; 500 g ai/ha): 90
Foxtail, Giant plant response rating (0 to 100 scale) ([2]; 125 g ai/ha): 90
Foxtail, Giant plant response rating (0 to 100 scale) ([2]; 500 g ai/ha): 90
Kochia plant response rating (0 to 100 scale) (kochia (Kochia scoparia) [3]; 125 g ai/ha): 0
Kochia plant response rating (0 to 100 scale) (kochia (Kochia scoparia) [3]; 500 g ai/ha): 40
Pigweed plant response rating (0 to 100 scale) ([4]; 125 g ai/ha): 10
Pigweed plant response rating (0 to 100 scale) ([4]; 500 g ai/ha): 60
Ragweed plant response rating (0 to 100 scale) ([5]; 125 g ai/ha): 0
Ragweed plant response rating (0 to 100 scale) ([5]; 500 g ai/ha): 80
Ryegrass, Italian plant response rating (0 to 100 scale) ([6]; 125 g ai/ha): 20
Ryegrass, Italian plant response rating (0 to 100 scale) ([6]; 500 g ai/ha): 80
Barnyardgrass plant response rating ([7]; 125 g ai/ha): 50
Barnyardgrass plant response rating ([7]; 500 g ai/ha): 90
Blackgrass plant response rating ([8]; 125 g ai/ha): 70
Blackgrass plant response rating ([8]; 500 g ai/ha): 90
Corn plant response rating (corn (Zea mays); 125 g ai/ha): 10
Corn plant response rating (corn (Zea mays); 500 g ai/ha): 90
Foxtail, Giant plant response rating ([9]; 125 g ai/ha): 50
Foxtail, Giant plant response rating ([9]; 500 g ai/ha): 90
Galium plant response rating ([10]; 125 g ai/ha): 30
Galium plant response rating ([10]; 500 g ai/ha): 70
Kochia plant response rating (kochia (Kochia scoparia) [11]; 125 g ai/ha): 20
Kochia plant response rating (kochia (Kochia scoparia) [11]; 500 g ai/ha): 30
Pigweed plant response rating ([12]; 125 g ai/ha): 0
Pigweed plant response rating ([12]; 500 g ai/ha): 20
Ragweed plant response rating ([13]; 125 g ai/ha): 0
Ragweed plant response rating ([13]; 500 g ai/ha): 20
Ryegrass, Italian plant response rating ([14]; 125 g ai/ha): 30
Ryegrass, Italian plant response rating ([14]; 500 g ai/ha): 90
Wheat plant response rating ([15]; 125 g ai/ha): 40
Wheat plant response rating ([15]; 500 g ai/ha): 80
Ducksalad plant response rating (0 to 100 scale) [16]: 30
Barnyardgrass plant response rating (0 to 100 scale) [17]: 65
Rice plant response rating (0 to 100 scale) (rice (Oryza sativa)): 0
